Where two headings read alike, the source gives them in different places.
Columns and labels:
[1] = system: VEEV TC83; test: microbe, parasite or virus in culture; assay type: cell-based, Venezuelan equine encephalitis virus
[2] = system: VEEV TC83; test: microbe, parasite or virus in culture; assay type: cell-based, Venezuelan equine encephalitis virus; remark: listed apart in the source
[3] = system: BE(2)-M17 cells
[4] = system: Neuro-2a cells
[5] = target: VEEV nsP2 protease (Venezuelan equine encephalitis virus, UniProt P27282); test: biochemical; conditions: read-out: estimated percentage inhibition of VEEV nsP2
[6] = system: VEEV (IC-SH3); test: microbe, parasite or virus in culture; assay type: cell-based; conditions: Venezuelan equine encephalitis virus, Vero, read-out: EC50 (Vero)
[7] = system: VEEV (IC-SH3); test: microbe, parasite or virus in culture; assay type: cell-based; conditions: Venezuelan equine encephalitis virus, HeLa, read-out: EC50 (HeLa)
[8] = Venezuelan equine encephalitis virus, read-out: Human BE(2)-M17 (TC83) EC50 (μM)
[9] = Venezuelan equine encephalitis virus, N2a, in Mus musculus, read-out: Mouse Neuro-2a (TC83) EC50 (μM)

Chain of VEEV nsP2 protease (P27282 1003-1322 limits assumed): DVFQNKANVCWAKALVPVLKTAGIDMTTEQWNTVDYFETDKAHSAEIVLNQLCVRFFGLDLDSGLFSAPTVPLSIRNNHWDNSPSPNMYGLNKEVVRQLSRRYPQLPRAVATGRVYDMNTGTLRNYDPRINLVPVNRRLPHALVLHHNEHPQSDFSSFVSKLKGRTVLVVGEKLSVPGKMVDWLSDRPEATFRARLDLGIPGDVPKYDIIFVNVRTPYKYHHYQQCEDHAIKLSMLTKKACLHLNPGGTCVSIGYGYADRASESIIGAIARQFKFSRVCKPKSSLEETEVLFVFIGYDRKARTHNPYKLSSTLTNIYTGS

Row | Compound | EC50 [1, 8] | EC50 [2, 9] | Human BE(2)-M17 (TC83) CC50 ([3]; human) | Mouse Neuro-2a (TC83) CC50 ([4]; mouse) | also measured
1 | COC(=O)/C=C/[C@H](C)NC(=O)c1cccc2c1NC(C)(C)C=C2C [Compound 24] | > 25 µM | > 25 µM | >25.00 µM | >25.00 µM | –
2 | C[C@@H]1CC(C)(C)Nc2c(C(=O)N[C@@H](C)/C=C/S(C)(=O)=O)cccc21 [Compound 13] | – | – | – | – | inhibition at 0.9 µM [5]: ~71%
3 | COC(=O)/C=C/CNC(=O)c1c[nH]c2ccc(C)cc12 [Compound 21] | > 25 µM | > 25 µM | >25.00 µM | >25.00 µM | –
4 | CS(=O)(=O)/C=C/CNC(=O)c1ccccc1Nc1ccccc1 [Compound 32] | > 25 µM | > 25 µM | 27.14 µM | >25.00 µM | –
5 | COC(=O)/C=C/CNC(=O)c1cccc2cccnc12 [Compound 17] | > 25 µM | > 25 µM | >25.00 µM | >25.00 µM | –
6 | CC1=CC(C)(C)Nc2c(C(=O)N[C@H](/C=C/S(C)(=O)=O)Cc3ccccc3)cc(C)cc21 [Compound 37] | 31.7 ± 16.7 µM | > 50 µM | >50.00 µM | >50.00 µM | –
7 | COC(=O)/C=C/[C@H](Cc1ccccc1)NC(=O)c1c[nH]c2ccc(Cl)cc12 [Compound 28] | > 50 µM | > 50 µM | >50.00 µM | >50.00 µM | –
8 | COC(=O)/C=C/CNC(=O)c1ccccc1Nc1c(Cl)ccc(C)c1Cl [Compound 23] | > 25 µM | > 25 µM | >25.00 µM | 23.53 µM | –
9 | COC(=O)/C=C/CNC(=O)c1cccc2c1NC(C)(C)C=C2C [Compound 1] | – | – | – | – | EC50 [6]: 0.55 µM; EC50 [7]: 6.48 µM
10 | COC(=O)/C=C/[C@H](Cc1ccccc1)NC(=O)c1cccc2c1NC(C)(C)C=C2C [Compound 29] | > 50 µM | > 50 µM | >50.00 µM | >50.00 µM | –
11 | CS(=O)(=O)/C=C/CNC(=O)c1ccccc1Nc1cccc(Cl)c1Cl [Compound 33] | > 25 µM | > 25 µM | 5.86 µM | 15.48 µM | –
12 | COC(=O)/C=C/CNC(=O)c1ccccc1Nc1cccc(Cl)c1Cl [Compound 20] | > 25 µM | > 25 µM | >25.00 µM | 1.52 µM | –
13 | Cc1ccc2cccc(C(=O)NC/C=C/S(C)(=O)=O)c2n1 [Compound 31] | > 25 µM | > 25 µM | >25.00 µM | >25.00 µM | –
14 | CN1CCN(C)C(=Nc2ccc([N+](=O)[O-])cc2C(=O)Nc2ccccc2)C1 [ML336, reference compound] | – | – | – | – | EC50 ([1]; read-out: Human BE(2)-M17 (TC83) EC50): 0.01 µM; EC50 ([2]; read-out: Mouse Neuro-2a (TC83) EC50): 0.02 ± 0.01 µM; Human BE(2)-M17 (TC83) CC50 [3]: >2.50 µM; Mouse Neuro-2a (TC83) CC50 [4]: >2.5 µM
15 | COC(=O)/C=C/CNC(=O)c1cccc2nccnc12 [Compound 22] | > 25 µM | > 25 µM | >25.00 µM | >25.00 µM | –
16 | COC(=O)/C=C/[C@H](C)NC(=O)c1cccc2c1NC(C)(C)C[C@H]2C [Compound 25] | > 25 µM | > 25 µM | >25.00 µM | >25.00 µM | –

Row | Compound | EC50 [1, 8] | EC50 [2, 9] | Human BE(2)-M17 (TC83) CC50 ([3]; human) | Mouse Neuro-2a (TC83) CC50 ([4]; mouse) | also measured
17 | COC(=O)/C=C/C(C)(C)NC(=O)c1cccc2c1NC(C)(C)C[C@H]2C [Compound 27] | > 25 µM | > 25 µM | >25.00 µM | >25.00 µM | –
18 | CS(=O)(=O)/C=C/CNC(=O)c1cccc2nccnc12 [Compound 34] | > 25 µM | > 25 µM | >25.00 µM | >25.00 µM | –
19 | Cc1ccc(Cl)c(Nc2ccccc2C(=O)NC/C=C/S(C)(=O)=O)c1Cl [Compound 35] | 18.2 ± 0.93 µM | > 25 µM | 14.50 µM | >25.00 µM | –
20 | CC1=CC(C)(C)Nc2c(C(=O)N[C@H](/C=C/S(=O)(=O)c3ccccc3)Cc3ccccc3)cccc21 [Compound 41] | > 25 µM | > 25 µM | >25.00 µM | >25.00 µM | –
21 | CC1=CC(C)(C)Nc2c(C(=O)N[C@@H](C)/C=C/S(C)(=O)=O)cccc21 [Compound 12] | – | – | – | – | inhibition at 0.9 µM [5]: ~59%
22 | COC(=O)/C=C/CNC(=O)c1cccc2ccc(C)nc12 [Compound 18] | > 25 µM | > 25 µM | >25.00 µM | >25.00 µM | –
23 | CC1=CC(C)(C)Nc2c(C(=O)NC(C)(C)/C=C/S(C)(=O)=O)cccc21 [Compound 38] | > 25 µM | > 25 µM | >25.00 µM | >25.00 µM | –
24 | COc1ccc2[nH]cc(C(=O)N[C@H](/C=C/S(=O)(=O)c3ccccc3)Cc3ccccc3)c2c1 [Compound 40] | 23.9 ± 5.33 µM | > 25 µM | >25.00 µM | >25.00 µM | –
25 | C[C@@H]1CC(C)(C)Nc2c(C(=O)NC/C=C/S(C)(=O)=O)cccc21 [Compound 11] | – | – | – | – | inhibition at 0.9 µM [5]: ~39%
26 | C[C@@H]1CC(C)(C)Nc2c(C(=O)NC(C)(C)/C=C/S(C)(=O)=O)cccc21 [Compound 39] | > 25 µM | > 25 µM | >25.00 µM | >25.00 µM | –
27 | COC(=O)/C=C/C(C)(C)NC(=O)c1cccc2c1NC(C)(C)C=C2C [Compound 26] | > 25 µM | > 25 µM | >25.00 µM | >25.00 µM | –
28 | CS(=O)(=O)/C=C/[C@H](Cc1ccccc1)NC(=O)c1cccc2cccnc12 [Compound 36] | > 25 µM | > 25 µM | >25.00 µM | >25.00 µM | –
29 | C[C@@H]1CC(C)(C)Nc2c(C(=O)N[C@H](/C=C/S(=O)(=O)c3ccccc3)Cc3ccccc3)cccc21 [Compound 42] | > 25 µM | > 25 µM | >25.00 µM | >25.00 µM | –
30 | O=C(N[C@H](/C=C/S(=O)(=O)c1ccccc1)Cc1ccccc1)c1cccc2c1NCCC2 [Compound 43] | > 25 µM | > 25 µM | >25.00 µM | >25.00 µM | –
31 | COC(=O)/C=C/[C@H](Cc1ccccc1)NC(=O)c1cc(C)cc2c1NC(C)(C)C=C2C [Compound 30] | > 50 µM | > 50 µM | >50.00 µM | >50.00 µM | –
32 | COC(=O)/C=C/CNC(=O)c1ccccc1Nc1ccccc1 [Compound 19] | > 25 µM | > 25 µM | >25.00 µM | >25.00 µM | –
